# From patent US20060194835A1, “Compositions and methods for treating or preventing flaviviridae infections” (priority 2005, published 2006)
# Key:
# BVDV [1] = experiment: Protection of MDBK cells from BVDV-induced cytopathicity (CPE reduction, MTS/PMS); type: cell-based, bovine viral diarrhea virus; conditions: Bovine viral diarrhea virus isolates and strains, MDBK, 50% CPE reduction; MOI 0.01
# BVDV [2] = experiment: Double combination checkerboard CPE assay, MacSynergy II and isobolograms; type: cell-based, bovine viral diarrhea virus
# Protocol: A double combination assay was performed using MDBK cells infected with BVDV in an inhibition of cytopathic effect (CPE) assay as described in Example 2. The double drug combinations were measured by creating a “checkerboard” of drug concentrations used on cell monolayers in microtiter plates, with one drug being titrated horizontally and the other drug titrated vertically, and each double combination being tested at least twice.
# The EC50 values of a first test compound derived while in combination with a second test compound were plotted against the corresponding concentration of the second test compound to create an isobole (dose pair). All of the isoboles were plotted in an isobologram to determine the presence of synergy, antagonism or additivity for the combined test compounds. […] The line connecting the monotherapy EC50 values represents the theoretical additivity effect values for the two compounds.
# In addition to generating isobolograms, the checkerboard data was imported into MacSynergy™ II software to graph the observed synergy (or additive or antagonism) volumes for the double combinations tested. Briefly, the calculated additive interactions were subtracted from the experimentally determined values to reveal the corresponding drug concentrations at which a synergistic (indicated by positive % values) or antagonistic (indicated by negative % values) effect is observed. The greater the positive percent volume observed, the greater the synergy between the two compounds. […] In contrast, any value about or less than −25 μM^2% or μM(IU/mL) % is indicative of a significant antagonistic effect. The data presented in Table 5 represent volumes of synergy or antagonism with 95% confidence. The confidence level was calculated using a Bonferroni adjustment as a conservative estimate of significance to statistically evaluate the data.
# BVDV [3] = experiment: Triple combination checkerboard CPE assay (celgosivir or castanospermine + interferon-α2b + ribavirin), MacSynergy II; type: cell-based, bovine viral diarrhea virus; conditions: for EC50: Bovine viral diarrhea virus isolates and strains, read-out: Average Celgosivir EC50
# Protocol: Each double or triple combination was performed twice. The combination efficacy data were analyzed using the MacSynergy™ II software program as described herein.
# Each double or triple combination was performed twice. The combination efficacy data were analyzed using the MacSynergy™ II software program as described herein. The EC50 for each of celgosivir and castanospermine was calculated from the triple combination studies described in Example 6.
# Each double or triple combination was performed twice. The combination efficacy data were analyzed using the MacSynergy™ software program as described herein. The EC50 for interferon-α2b was calculated from the triple combination studies described in Example 6.
# [4] = Pharmacokinetics of orally administered celgosivir in rats (plasma castanospermine); type: in vivo, Male Sprague-Dawley rats; conditions: normal rats; loperamide 0.35 mg/kg
# Protocol: The purpose of this study was to evaluate the effect of an anti-diarrheal agent on the pharmacokinetics (PK) of orally administered celgosivir. In addition, the effect of anti-diarrheal agents on celgosivir PK was investigated. The pharmacokinetics of celgosivir was assessed by following the plasma profile of celgosivir's primary metabolite, castanospermine. By way of background, orally administered celgosivir, although well tolerated in humans, does produce side effects in the gastrointestinal tract, including flatulence and mild to moderate diarrhea. Loperamide hydrochloride, an anti-motility agent that is an active ingredient found in some over-the-counter medications used for symptomatic relief of acute and chronic diarrhea, was investigated for its effect on the PK of orally administered celgosivir. […]
# At various time-points after celgosivir administration, blood samples were withdrawn from animals via the tail vein. Plasma samples were generated and stored frozen until analyzed. Plasma samples were analyzed for castanospermine, the major metabolite of celgosivir, using LC/MS. […] Celgosivir pharmacokinetics was assessed by following the plasma concentration of its primary metabolite, castanospermine. Pharmacokinetic parameters were calculated according to a two-compartment model with bio-exponential decay using the method of residuals. […]
# in vitro [5] = conditions: bovine
# in vitro [6] = conditions: bovine; remark: listed apart in the source
# BVDV strain NADL = experiment: Inhibition of viral release from BVDV-infected MDBK cells (plaque titer); conditions: for EC50 / EC90: Bovine viral diarrhea virus isolates and strains, MDBK, 24 h
# [7] = Drug cytotoxicity in uninfected MDBK cells (MTS/PMS); conditions: bovine
# [8] = Cytotoxicity of test compound in MDBK cells in the absence of viral infection (Example 1); conditions: bovine, MDBK cells, uninfected
compound,measurement,setting,value
"CCCC(=O)O[C@H]1CN2CC[C@H](O)[C@@H]2[C@@H](O)[C@@H]1O [Celgosivir, [1S-(1α,6β,7α,8β,8aβ)]-octahydro-1,6,7,8-indolizinetetrol 6-butanoate]",EC50,BVDV [1],7.7 ± 3 µM
same,fold reduction of EC50 of celgosivir,BVDV [2]; at 2 μM ribavirin,3 fold
same,fold reduction of EC50 of celgosivir,BVDV [2]; at 2.2 μM NM-107,more than 8 fold
same,EC50,"BVDV [3]; Ribavirin 0 μM, Interferon-α2b 0 IU/mL",~6.5 µM
same,EC50,"BVDV [3]; Ribavirin 0 μM, Interferon-α2b 0.7 IU/mL",4.8 ± 0.7 µM
same,EC50,"BVDV [3]; Ribavirin 0 μM, Interferon-α2b 2.2 IU/mL",3.9 ± 0.9 µM
same,EC50,"BVDV [3]; Ribavirin 0 μM, Interferon-α2b 6.7 IU/mL",1.6 ± 0.6 µM
same,EC50,"BVDV [3]; Ribavirin 0 μM, Interferon-α2b 20 IU/mL",< 0.4 µM
same,EC50,"BVDV [3]; Ribavirin 0.37 μM, Interferon-α2b 0.7 IU/mL",4.3 ± 1 µM
same,EC50,"BVDV [3]; Ribavirin 0.37 μM, Interferon-α2b 2.2 IU/mL",2.7 ± 1.3 µM
same,EC50,"BVDV [3]; Ribavirin 0.37 μM, Interferon-α2b 6.7 IU/mL",1 ± 0.7 µM
same,EC50,"BVDV [3]; Ribavirin 0.37 μM, Interferon-α2b 20 IU/mL",< 0.3 µM
same,EC50,"BVDV [3]; Ribavirin 1.1 μM, Interferon-α2b 0.7 IU/mL",2.9 ± 0.9 µM
same,EC50,"BVDV [3]; Ribavirin 1.1 μM, Interferon-α2b 2.2 IU/mL",2.1 ± 0.2 µM
same,EC50,"BVDV [3]; Ribavirin 1.1 μM, Interferon-α2b 6.7 IU/mL",< 0.9 µM
same,EC50,"BVDV [3]; Ribavirin 1.1 μM, Interferon-α2b 20 IU/mL",< 0.3 µM
same,EC50,"BVDV [3]; Ribavirin 3.3 μM, Interferon-α2b 0.7 IU/mL",< 1 µM
same,EC50,"BVDV [3]; Ribavirin 3.3 μM, Interferon-α2b 2.2 IU/mL",< 0.3 µM
same,EC50,"BVDV [3]; Ribavirin 3.3 μM, Interferon-α2b 6.7 IU/mL",< 0.3 µM
same,EC50,"BVDV [3]; Ribavirin 3.3 μM, Interferon-α2b 20 IU/mL",< 0.3 µM
same,dose-dependent reduction in EC50,BVDV [3]; upon the addition of increasing concentrations of interferon-α2b,up to 26 fold
same,effect of concomitant anti-diarrheal agent on the PK of celgosivir,[4],no significant effect
same,CC50 at 24 h,in vitro [5],> 2000 µM
same,CC50,in vitro [6],> 300 µM
same,EC50,BVDV strain NADL,2 ± 1.3 µM
same,EC90,BVDV strain NADL,7.6 ± 2.3 µM
same,"TI (Therapeutic Index, CC50/EC50)",BVDV strain NADL; MOI = 1,>1000
"NC(=O)c1ncn([C@@H]2O[C@H](CO)[C@@H](O)[C@H]2O)n1 [Ribavirin, ribavirin, reference compound]",EC50,BVDV [1],4.4 ± 2 µM
same,CC50,[7],≥ 25 µM
same,EC50,BVDV strain NADL,1.5 ± 1 µM
same,EC90,BVDV strain NADL,5.7 ± 2.7 µM
same,CC50 at 24 h,[8],250 µM
